# Laboratory results published in publication PMC10119930, “Dual Molecules Targeting 5-HT6 and GABA-A Receptors as a New Approach to Combat Depression Associated with Neuroinflammation” (ACS Chemical Neuroscience, 2023).
# System: female Wistar rats
# Assay: Open field test in rats (locomotor activity)
# Assay type: in vivo, rat
# Parameters: total distance traveled: unit not given here
# Description: Naïve female Wistar rats (weighing 180–200 g) were used in the study. The animals were housed in groups of three to four in standard Makrolon cages (37 cm × 21 cm × 15 cm) under strictly controlled laboratory conditions (ambient temperature 21–24 °C, relative humidity 45–65%) with a 12/12 h light–dark regime (light on at 6:00 a.m. and off at 6:00 p.m.). Animals had unrestricted access to tap water and food (typical pellets). Prior the experiment the animals were randomly appointed to the group. The behavioral studies were accomplished between 8:00 a.m. and 5:00 p.m. with the researcher blind to the study. The experiments were performed according to protocols approved by the Local Ethical Committee in Krakow (Approval Number 147/2018), Poland. Housing and experimental procedures were conducted under the European Union Directive of September 22, 2010 (2010/63/EU) and Polish legislation regarding animal studies. All efforts were made to minimize animal suffering and the number of animals used in the study.
# Vortioxetine (Sigma, Germany) and the tested compounds (16 and 6) were dissolved in 10% cyclodextrin and administered ip 30 min before the test or during 14 consecutive days, with the last injection 60 min before the test. 10% cyclodextrin was administrated to control group.
# A modified forced swim test was carried out according to Detke et al.[50],[51] First, the animals were individually placed inside Plexiglas cylinders, which were 40 cm high and 18 cm in diameter, filled with water at a temperature of 23–25 °C for 15 min. Afterward, the rats were transferred to a Plexiglas box and kept under a 60 W bulb for 30 min to dry. The day after, exactly 24 h later, the rats were once again placed in the cylinder, and their duration of immobility, swimming, and climbing was observed and recorded during a 5 min. The swimming behavior involved energetic movements such as horizontal swimming around the cylinder, while climbing activity referred to upward movements of the forepaws along the swim chamber’s side. Immobility was recorded when the rat only made necessary movements to keep its head above the water. For each test, a fresh water was provided. Open field test in rats: The test was conducted as previously reported by our research group.[52] The test was performed in a darkened room employing the Motor Monitor System (Campden Instruments, Ltd., U.K.). The system was equipped with two SmartFrame Open Field stations, each measuring 40 cm × 40 cm × 38 cm and consisting of 16 × 16 beams. These stations were placed inside sound-attenuating chambers and connected to a PC software using […]. The animals, belonging to either the vehicle-injected or drug-injected group, were individually positioned at the center of the station. The Motor Monitor System, which was automated, recorded the animal’s ambulation in both the X and Y axes, as well as the number of rearing and peeping episodes. Additionally, the total distance traveled by each animal during the 5 min test period was also recorded. Statistical analysis: Results are presented as the mean ± SEM values. They were estimated using one-way analysis of variance (ANOVA), followed by Newman–Keuls post hoc or unpaired two-tailed Student t test. Statistical significance was considered when p < 0.05 for differences between groups.
# [1] = acute treatment, dose 3, ip 30 min prior
# [2] = chronic treatment, dose 3, ip 14 days
smiles,measurement,setting,value
"Cc1c(OCc2ccccc2)cccc1N1CCN(CCOC(=O)CCCN)CC1.Cl.Cl [Compound 16, 1-(2-((4-Ammoniobutanoyl)oxy)ethyl)-4-(3-(benzyloxy)-2-methylphenyl)piperazin-1-ium Dichloride]",X ambulation,[1],221.3
same,Y ambulation,[1],213.7
same,rearing,[1],34.5
same,total distance traveled,[1],506.3
same,influence on spontaneous locomotor activity,"acute, 3 mg/kg",did not observe any influence
same,X ambulation,[2],260.4
same,Y ambulation,[2],255.3
same,rearing,[2],52.2
same,total distance traveled,[2],2575
same,changes in spontaneous locomotor activity,"subchronic, 3 mg/kg",did not result in any significant changes
